Measurements: US5061711A, “Method of curing liver diseases by using pyrrolo quinoline quinone triesters and novel pyrrolo quinoline quinone triesters” (Mitsubishi Gas Chemical Company, Inc., priority 1989, dated 1991)

Key:
mice [1] = assay: Kidney toxicity (2) determined by blood examination; assay type: in vivo, mouse; conditions: average of eight mice; for Creatinine in serum: None: 0.8; for Urea nitrogen in serum: None: 23; for Glucose in serum: None: 93
Procedure: (4) Kidney toxicity (2) determined by blood examination:
The dosage per kg of body weight of mouse was 150, 400 mg and 100 mg.
(§1) After lapse of one day from the administration, the mice were fasted (only water was given) and then, after 15 hours, blood was collected and serum was obtained therefrom. Glucose, urea nitrogen and creatinine in the serum were examined by clinical examination reagent (trademark : FUJI DRYCHEMSLIDE manufactured by Fuji Photo Film Co., Ltd.). The results are shown by average value of eight mice in Table 4.

mice [2] = assay: Kidney toxicity determined by blood examination; assay type: in vivo, mouse; conditions: for Creatinine in serum / Urea nitrogen in serum / Glucose in serum: average of eight mice; for Creatinine in serum: None: 0.4; for Urea nitrogen in serum: None: 20; for Glucose in serum: None: 78
Procedure: (3) Kidney toxicity determined by blood examination:
as §1, with “then” for “then,”, “18” for “15”, “(trademark:” for “(trademark :”, “3.” for “4.”

Solubility = assay type: physicochemical

## COC(=O)c1cc(C(=O)OC)c2c(n1)C(=O)C(=O)c1cc(C(=O)OC)[nH]c1-2 [PQQ trimethyl ester]
Mice [1]; 150 mg/kg
  Creatinine in serum: 0.9 mg/dL
  Urea nitrogen in serum: 22 mg/dL
  Glucose in serum: 72 mg/dL
Mice [1]; 400 mg/kg
  Creatinine in serum: 0.7 mg/dL
  Urea nitrogen in serum: 20 mg/dL
  Glucose in serum: 55 mg/dL
Mice [1]; 1000 mg/kg
  Creatinine in serum: 0.7 mg/dL
  Urea nitrogen in serum: 17 mg/dL
  Glucose in serum: 60 mg/dL

## C=CCOC(=O)c1cc(C(=O)OCC=C)c2c(n1)C(=O)C(=O)c1cc(C(=O)OCC=C)[nH]c1-2 [PQQ triallyl ester]
Mice [2]; i.p. 40 mg/kg
  Creatinine in serum: 0.3 mg/dL
  Urea nitrogen in serum: 12 mg/dL
  Glucose in serum: 42 mg/dL
Mice [2]; i.p. 80 mg/kg
  Creatinine in serum: 0.2 mg/dL
  Urea nitrogen in serum: 12 mg/dL
  Glucose in serum: 47 mg/dL
Mice [2]; i.p. 160 mg/kg
  Creatinine in serum: 0.2 mg/dL
  Urea nitrogen in serum: 10 mg/dL
  Glucose in serum: 59 mg/dL
Mice [2]; i.p. 200 mg/kg
  Creatinine in serum: 0.1 mg/dL
  Urea nitrogen in serum: 9 mg/dL
  Glucose in serum: 64 mg/dL
Mice [2]; i.p., versus no compound
  creatinine in serum (in words): nearly the same
  glucose in serum (in words): nearly the same
  urea nitrogen in serum (in words): nearly the same
Mice [2]; mouse, in vivo, ip
  kidney toxicity (in words): no kidney toxicity was observed
Solubility; acetone
  Solubility: Very soluble
Solubility; ethanol
  Solubility: Very soluble
Solubility; methanol
  Solubility: Very soluble
Solubility; water
  Solubility: hardly soluble
